The values that follow are results of earlier work, collected in patent US6356845B1, “Crystallization and structure determination of Staphylococcus aureus UDP-N-acetylenolpyruvylglucosamine reductase (S. aureus MurB)” (priority 1999, dated 2002).

One may read the Km as the concentration of substrate that gives half-maximal velocity.

This data set concerns the target T1, S. aureus MurB (Staphylococcus aureus, UniProt P61431).
T1 construct: His6; made in house; host or cells: E. coli K12S (F' lacIq), plasmid pQE-10 murB obtained from Human Genome Sciences
As to conditions: read-out: Km for EP-UDPGlcNAc with S. aureus MurB; substrate Km; S. Swaney, personal communication.

Each structure is given as a SMILES string.

For the compound `C=C(O[C@H]1[C@H](O)[C@@H](CO)O[C@H](OP(=O)(O)OP(=O)(O)OC[C@H]2O[C@@H](n3ccc(=O)[nH]c3=O)[C@H](O)[C@@H]2O)[C@@H]1NC(C)=O)C(=O)O` [EP-UDPGlcNAc, Uridine diphospho-N-acetylglucosamine enolpyruvate], the Km was 15 µM.
